Molecules are shown by their SMILES. Where a SMILES comes first, the peptide text is derived from it. Bridges are numbered along the chain shown (N, C = ends). [ ]: non-standard residue; d: D form.

These results are taken from ChEMBL document CHEMBL1145933, “Novel sst(4)-selective somatostatin (SRIF) agonists. 1. Lead identification using a betide scan” (J Med Chem, 2003).

For test [1], the target named is Somatostatin receptor type 1 (Homo sapiens, UniProt P30872). In words: Binding affinity towards human Somatostatin receptor type 1 using 125I-[Leu,DTrp,Tyr]SRIF-28 as radioligand.
Test [2] concerns the target Somatostatin receptor type 2 (Homo sapiens, UniProt P30874). In words: Binding affinity towards human Somatostatin receptor type 2 using 125I-[Leu,DTrp,Tyr]SRIF-28 as radioligand.
Test [3] has as its target Somatostatin receptor type 4 (Homo sapiens, UniProt P31391). In words: Binding affinity towards human Somatostatin receptor type 4 using 125I-[Leu,DTrp,Tyr]SRIF-28 as radioligand.
For test [4], the target named is Somatostatin receptor type 3 (Homo sapiens, UniProt P32745). In words: Binding affinity towards human Somatostatin receptor type 3 using 125I-[Leu,DTrp,Tyr]SRIF-28 as radioligand.
The target of test [5] is Somatostatin receptor type 5 (Homo sapiens, UniProt P35346). In words: Binding affinity towards human Somatostatin receptor type 5 using 125I-[Leu,DTrp,Tyr]SRIF-28 as radioligand.
Somatostatin receptor type 5, sequence (P35346 whole entry): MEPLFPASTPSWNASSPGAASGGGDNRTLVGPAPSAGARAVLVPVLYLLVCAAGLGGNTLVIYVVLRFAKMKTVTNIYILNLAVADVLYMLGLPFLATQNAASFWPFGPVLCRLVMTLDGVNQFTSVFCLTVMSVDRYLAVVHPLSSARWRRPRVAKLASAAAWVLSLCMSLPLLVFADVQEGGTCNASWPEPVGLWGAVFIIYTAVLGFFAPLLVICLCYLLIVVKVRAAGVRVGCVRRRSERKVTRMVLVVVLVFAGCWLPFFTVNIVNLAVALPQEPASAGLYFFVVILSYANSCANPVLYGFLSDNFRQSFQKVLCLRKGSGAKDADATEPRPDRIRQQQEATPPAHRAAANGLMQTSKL

Somatostatin receptor type 3, sequence (P32745 whole entry): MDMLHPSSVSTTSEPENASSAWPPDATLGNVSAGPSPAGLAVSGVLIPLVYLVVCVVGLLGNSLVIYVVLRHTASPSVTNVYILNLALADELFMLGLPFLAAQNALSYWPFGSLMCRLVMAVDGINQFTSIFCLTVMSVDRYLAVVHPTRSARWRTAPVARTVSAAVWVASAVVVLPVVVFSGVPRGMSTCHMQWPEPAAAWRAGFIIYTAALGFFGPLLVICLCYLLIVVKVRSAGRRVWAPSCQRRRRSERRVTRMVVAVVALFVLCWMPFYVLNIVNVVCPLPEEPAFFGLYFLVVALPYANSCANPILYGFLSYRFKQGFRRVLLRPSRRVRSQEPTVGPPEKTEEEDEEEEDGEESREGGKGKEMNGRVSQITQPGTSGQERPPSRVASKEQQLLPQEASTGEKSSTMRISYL
Somatostatin receptor type 2, sequence (P30874 whole entry): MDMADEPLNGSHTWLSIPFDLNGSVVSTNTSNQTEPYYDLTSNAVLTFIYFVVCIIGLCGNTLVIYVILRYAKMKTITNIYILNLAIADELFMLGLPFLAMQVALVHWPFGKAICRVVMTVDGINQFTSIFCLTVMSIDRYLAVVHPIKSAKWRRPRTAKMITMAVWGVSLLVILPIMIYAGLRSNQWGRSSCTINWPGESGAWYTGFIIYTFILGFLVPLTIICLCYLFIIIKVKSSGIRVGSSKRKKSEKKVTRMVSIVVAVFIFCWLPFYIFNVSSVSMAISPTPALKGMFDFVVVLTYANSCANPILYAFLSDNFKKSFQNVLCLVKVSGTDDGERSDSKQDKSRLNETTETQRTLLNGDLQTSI
Somatostatin receptor type 4, sequence (P31391 whole entry): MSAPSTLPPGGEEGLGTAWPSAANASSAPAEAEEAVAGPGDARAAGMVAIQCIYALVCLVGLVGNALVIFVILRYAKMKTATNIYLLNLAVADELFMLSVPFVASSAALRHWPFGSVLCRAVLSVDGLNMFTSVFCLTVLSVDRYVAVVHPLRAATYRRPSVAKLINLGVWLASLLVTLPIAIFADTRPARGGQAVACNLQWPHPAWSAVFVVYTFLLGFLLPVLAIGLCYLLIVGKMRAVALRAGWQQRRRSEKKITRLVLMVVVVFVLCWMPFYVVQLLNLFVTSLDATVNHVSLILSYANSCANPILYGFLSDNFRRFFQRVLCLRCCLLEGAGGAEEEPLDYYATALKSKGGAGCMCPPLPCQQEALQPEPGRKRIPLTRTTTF
Somatostatin receptor type 1, sequence (P30872 whole entry): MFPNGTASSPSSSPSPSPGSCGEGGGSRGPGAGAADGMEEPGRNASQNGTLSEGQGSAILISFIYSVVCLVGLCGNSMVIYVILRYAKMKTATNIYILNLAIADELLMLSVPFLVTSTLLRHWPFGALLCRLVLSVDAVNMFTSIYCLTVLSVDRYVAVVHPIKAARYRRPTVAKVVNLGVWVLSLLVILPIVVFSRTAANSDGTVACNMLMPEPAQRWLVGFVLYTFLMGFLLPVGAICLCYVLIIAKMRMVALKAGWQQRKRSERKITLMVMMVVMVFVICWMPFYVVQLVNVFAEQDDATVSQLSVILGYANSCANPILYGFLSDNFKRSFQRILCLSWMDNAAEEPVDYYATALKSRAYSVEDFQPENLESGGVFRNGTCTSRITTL

`C[C@@H](O)[C@@H]1NC(=O)[C@@H](N(C)C(=O)CCN)NC(=O)[C@@H](Cc2c[nH]c3ccccc23)NC(=O)[C@H](Cc2ccccc2)NC(=O)[C@H](Cc2ccccc2)NC(=O)[C@@H](N)CSSC[C@@H](C(=O)O)NC(=O)[C@H](Cc2ccccc2)NC1=O`: the IC50 (usually the point on the concentration scale where inhibition reaches its midpoint) was greater than 10000 nM in test [1]; greater than 10000 nM in test [2]; 429 nM in test [3]; greater than 1000 nM in test [4]; greater than 1000 nM in test [5].

In the case of `C[C@@H](O)[C@@H]1NC(=O)[C@H](CCCCN)NC(=O)[C@@H](Cc2c[nH]c3ccccc23)NC(=O)[C@H](Cc2ccccc2)NC(=O)[C@H](Cc2ccccc2)NC(=O)[C@@H](N)CSSC[C@@H](C(=O)O)NC(=O)[C@@H](N(C)C(=O)c2ccccc2)NC1=O`, the IC50 in test [1] was greater than 10000 nM; in test [2] it was greater than 1000 nM; in test [3] it was 80 nM; in test [4], greater than 1000 nM; in test [5], greater than 1000 nM.

For `COC(=O)[C@H](CCCN=C(N)N)NC(=O)CCCc1c(-c2ccccc2)[nH]c2c(F)cc(F)cc12`, the IC50 was greater than 1000 nM in test [1], greater than 1000 nM in test [2], greater than 1000 nM in test [4] and greater than 10000 nM in test [5].

`C[C@@H](O)[C@@H]1NC(=O)[C@H](CCCCN)NC(=O)[C@@H](Cc2c[nH]c3ccccc23)NC(=O)[C@H](Cc2ccccc2)NC(=O)[C@H](Cc2ccccc2)NC(=O)[C@@H](N)CSSC[C@@H](C(=O)O)NC(=O)[C@H](N(C)C(=O)c2ccccc2)NC1=O`: the half-maximal inhibitory concentration (IC50) in test [1] is greater than 10000 nM; in test [2], 455 nM; in test [3], 6.9 nM; in test [4] it was 235 nM; in test [5], 220 nM.

As to `C[C@@H](O)[C@@H]1NC(=O)[C@H](N(C)C(=O)CCN)NC(=O)[C@@H](Cc2c[nH]c3ccccc23)NC(=O)[C@H](Cc2ccccc2)NC(=O)[C@H](Cc2ccccc2)NC(=O)[C@@H](N)CSSC[C@@H](C(=O)O)NC(=O)[C@H](Cc2ccccc2)NC1=O`, the IC50 in test [1], in test [2], in test [3], in test [4] and in test [5] was greater than 1000 nM each time.

Turning to `C[C@@H](O)[C@@H]1NC(=O)[C@H](CCCCN)NC(=O)[C@H](Cc2c[nH]c3ccccc23)NC(=O)[C@H](N(C)C(=O)c2ccccc2)NC(=O)[C@H](Cc2ccccc2)NC(=O)[C@@H](N)CSSC[C@@H](C(=O)O)NC(=O)[C@H](Cc2ccccc2)NC1=O`, the IC50 in test [1] is greater than 10000 nM; in test [2], greater than 1000 nM; in test [3] it was 5.4 nM; in test [4] it was 403 nM; in test [5], greater than 1000 nM.

Take `C[C@@H](O)[C@@H]1NC(=O)[C@H](CCCCN)NC(=O)[C@H](Cc2c[nH]c3ccccc23)NC(=O)[C@H](Cc2ccccc2)NC(=O)[C@H](Cc2ccccc2)NC(=O)[C@@H](N)CSSC[C@@H](C(=O)O)NC(=O)[C@H](Cc2ccccc2)NC1=O` (H-CFFWKTFC-OH; disulfide 1-8): the IC50 in test [1] worked out at 27 nM; in test [2], 41 nM; in test [3], 1.8 nM; in test [5] it was 46 nM.

In the case of `C[C@@H](O)[C@@H]1NC(=O)[C@H](CCCCN)NC(=O)[C@@H](Cc2c[nH]c3ccccc23)NC(=O)[C@H](Cc2ccccc2)NC(=O)[C@H](Cc2ccccc2)NC(=O)[C@@H](N)CSSC[C@@H](C(=O)O)NC(=O)[C@H](Cc2ccccc2)NC1=O` (H-CFF[dW]KTFC-OH; disulfide 1-8), the IC50 in test [1] is 5.3 nM; in test [2] it was 130 nM; in test [3], 0.7 nM; in test [5] it was 14 nM.

Turning to `C[C@@H](O)[C@@H]1NC(=O)[C@H](CCCCN)NC(=O)[C@@H](Cc2c[nH]c3ccccc23)NC(=O)[C@H](Cc2ccccc2)NC(=O)[C@H](N(C)C(=O)c2ccccc2)NC(=O)[C@@H](N)CSSC[C@@H](C(=O)O)NC(=O)[C@H](Cc2ccccc2)NC1=O` (stereo in doubt; 4), the IC50 in test [1] is 667 nM; in test [2] it was 374 nM; in test [3], 14 nM; in test [4], greater than 10000 nM; in test [5], greater than 1000 nM.

`C[C@@H](O)[C@@H]1NC(=O)[C@H](CCCCN)NC(=O)[C@@H](Cc2c[nH]c3ccccc23)NC(=O)[C@H](Cc2ccccc2)NC(=O)[C@H](N(C)C(=O)c2ccccc2)NC(=O)[C@@H](N)CSSC[C@@H](C(=O)O)NC(=O)[C@H](Cc2ccccc2)NC1=O` (stereo in doubt; 5): the IC50 in test [1] is greater than 10000 nM; in test [2], greater than 1000 nM; in test [3] it was greater than 1000 nM.

Consider `C[C@@H](O)[C@@H]1NC(=O)[C@H](CCCCN)NC(=O)[C@@H](Cc2c[nH]c3ccccc23)NC(=O)[C@H](N(C)C(=O)c2ccccc2)NC(=O)[C@H](Cc2ccccc2)NC(=O)[C@H](N)CSSC[C@@H](C(=O)O)NC(=O)[C@H](Cc2ccccc2)NC1=O` (stereo in doubt; 7), for which the IC50 in test [1] is greater than 10000 nM; in test [2], greater than 1000 nM; in test [3] it was 133 nM; in test [4], 725 nM; in test [5] it was greater than 1000 nM.

On to `C[C@@H](O)[C@@H]1NC(=O)[C@H](CCCCN)NC(=O)[C@@H](Cc2c[nH]c3ccccc23)NC(=O)[C@H](N(C)C(=O)c2ccccc2)NC(=O)[C@H](Cc2ccccc2)NC(=O)[C@H](N)CSSC[C@@H](C(=O)O)NC(=O)[C@H](Cc2ccccc2)NC1=O` (stereo in doubt; 8), for which the IC50 in test [2] turned out to be 460 nM; in test [3] it was 5.2 nM; in test [4], 447 nM; in test [5], 768 nM.

Take `C[C@@H](O)[C@@H]1NC(=O)[C@H](CCCCN)NC(=O)[C@@H](Cc2c[nH]c3ccccc23)NC(=O)[C@H](N(C)C(=O)c2ccccc2)NC(=O)[C@H](Cc2ccccc2)NC(=O)[C@H](N)CSSC[C@@H](C(=O)O)NC(=O)[C@H](Cc2ccccc2)NC1=O` (stereo in doubt; 9): the IC50 is 153 nM in test [3] and greater than 1000 nM in test [4].

On to `C[C@@H](O)[C@@H]1NC(=O)[C@H](CCCCN)NC(=O)[C@@H](Cc2c[nH]c3ccccc23)NC(=O)[C@H](N(C)C(=O)c2ccccc2)NC(=O)[C@H](Cc2ccccc2)NC(=O)[C@H](N)CSSC[C@@H](C(=O)O)NC(=O)[C@H](Cc2ccccc2)NC1=O` (stereo in doubt; 10), for which the IC50 in test [1] was greater than 1000 nM; in test [2] it was 533 nM; in test [3], 3.4 nM; in test [4] it was 382 nM; in test [5] it was 460 nM.

Consider `C[C@@H](O)[C@@H]1NC(=O)[C@H](CCCCN)NC(=O)[C@@H](Cc2c[nH]c3ccccc23)NC(=O)[C@H](N(C)C(=O)c2ccccc2)NC(=O)[C@H](Cc2ccccc2)NC(=O)[C@H](N)CSSC[C@@H](C(=O)O)NC(=O)[C@H](Cc2ccccc2)NC1=O` (stereo in doubt; 11), for which the figures for the IC50 in test [3] and in test [4] were 31 nM and 136 nM, respectively.

As for `C[C@@H](O)[C@@H]1NC(=O)[C@@H](NC(=O)CCN)NC(=O)[C@@H](Cc2c[nH]c3ccccc23)NC(=O)[C@H](Cc2ccccc2)NC(=O)[C@H](Cc2ccccc2)NC(=O)[C@@H](N)CSSC[C@@H](C(=O)O)NC(=O)[C@H](Cc2ccccc2)NC1=O` (stereo in doubt; 16), the IC50 is greater than 10000 nM in test [1]; greater than 1000 nM in test [2]; greater than 10000 nM in test [3]; greater than 1000 nM in test [4]; greater than 10000 nM in test [5].

Regarding `C[C@@H](O)[C@@H]1NC(=O)[C@@H](NC(=O)CCN)NC(=O)[C@@H](Cc2c[nH]c3ccccc23)NC(=O)[C@H](Cc2ccccc2)NC(=O)[C@H](Cc2ccccc2)NC(=O)[C@@H](N)CSSC[C@@H](C(=O)O)NC(=O)[C@H](Cc2ccccc2)NC1=O` (stereo in doubt; 17), the IC50 in test [1] is greater than 10000 nM; in test [2] it was greater than 1000 nM; in test [3], greater than 1000 nM; in test [4], greater than 1000 nM; in test [5], greater than 10000 nM.

In the case of `CN(C(=O)CO)[C@H]1NC(=O)[C@H](CCCCN)NC(=O)[C@@H](Cc2c[nH]c3ccccc23)NC(=O)[C@H](Cc2ccccc2)NC(=O)[C@H](Cc2ccccc2)NC(=O)[C@@H](N)CSSC[C@@H](C(=O)O)NC(=O)[C@H](Cc2ccccc2)NC1=O` (stereo in doubt; 20), the 50% inhibitory concentration (IC50) is 45 nM in test [1]; greater than 1000 nM in test [2]; 6.5 nM in test [3]; greater than 1000 nM in test [4]; 211 nM in test [5].

As for `CN(C(=O)CO)[C@H]1NC(=O)[C@H](CCCCN)NC(=O)[C@@H](Cc2c[nH]c3ccccc23)NC(=O)[C@H](Cc2ccccc2)NC(=O)[C@H](Cc2ccccc2)NC(=O)[C@@H](N)CSSC[C@@H](C(=O)O)NC(=O)[C@H](Cc2ccccc2)NC1=O` (stereo in doubt; 21), the IC50 was 860 nM in test [1]; greater than 1000 nM in test [2]; 38 nM in test [3]; greater than 1000 nM in test [4]; 389 nM in test [5].
